The source of these data is the RepoRT retention time repository.

Structures are written as SMILES.

The nature of the series: Agilent ZORBAX 300 SB-C18, 150 × 1 mm, 3.5 µm; A: water + 0.01% heptafluorobutyric acid; B: acetonitrile + 0.01% heptafluorobutyric acid; gradient (min/%B) 0/0 100/90. The note with it: stereoisomer not certain.
Regarding `CN(C)CCCN1c2ccccc2Sc2ccccc21`, the LC retention time was 11.3 min. Under `Cc1ccc(C=NNC(=O)C(=O)NC(C)C)o1` stands 9.79 min; under `C1CN(CCN2CCOCC2)CCO1`, 6.81 min; under `O=C1C=CC(=O)N1c1ccc(N2CCCCC2)cc1`, 9.22 min.

For the compound `CC[N+](C)(CC)CC`, the LC retention time amounted to 6.48 min. In the case of `Cc1n[nH]c(=O)nc1NC1CCCCC1`, the LC retention time came to 8.28 min.

`CC1(C)CC(=O)c2c(-c3ccccc3)nc3ccc4ccccc4c3c2C1`: the LC retention time is 17.1 min. Under `CC(C)(C)c1ccc(C(=O)NC(CC(=O)O)c2ccc(C(C)(C)C)cc2)cc1` (stereo unspecified) stands 16.7 min.

For the compound `O=C(C(=O)c1cccs1)c1ccccc1`, the LC retention time turned out to be 14.4 min. Turning to `CCCCC1(C)NC(=S)N(c2ccc(C)cc2)N1` (stereo unspecified), the LC retention time stood at 15.1 min. Under `CC(=O)N1CCC(C2CCNCC2)CC1` stands 7 min. As to `NCCN1CCCCC1`, the LC retention time amounted to 6.98 min. Under `CCCNC(C)C(=O)Nc1c(C)csc1C(=O)OC` (stereo unspecified) stands 9.27 min.

Regarding `CC(=O)OC1(C(C)=O)CCC2C3CC(C)C4=CC(=O)CCC4(C)C3CCC21C` (stereo unspecified), the LC retention time was found to be 17 min. Under `CC1=CC(=O)C2CC1C2(C)C` (stereo unspecified) stands 11.4 min; under `Cc1cccc(-c2ccnc(=S)[nH]2)c1`, 9.59 min; under `C1CNCCN1`, 6.38 min.

For `Cc1nnc(N)[nH]c1=O`, the LC retention time amounted to 2.72 min.

For `Cn1c(N)nc2nc[nH]c2c1=O`, the LC retention time worked out at 6.36 min. Consider `CCCCNC(=O)c1c[nH]c2ccccc2c1=O`, for which the LC retention time amounted to 12.9 min. Under `COc1ccc2c(c1)C13CCCCC1C(C2)N(C)CC3` (stereo unspecified) stands 10.6 min. For the compound `O=C(CN1CCN(C(=O)CNC2CCCCC2)CC1)NC1CCCCC1`, the LC retention time was 9.54 min. Turning to `OCc1cccc(CO)n1`, the LC retention time was 5.64 min. Under `c1ccc2c(c1)CCc1c-2[nH]c2ccccc12` stands 17.1 min. For `Cc1ncc(C[n+]2csc(CCOP(=O)(O)OP(=O)(O)O)c2C)c(N)n1`, the LC retention time is 1.62 min. For the compound `NC(=O)Cc1ccc(O)cc1`, the LC retention time was 5.97 min. Turning to `c1cncc(CN=Nc2nc(N3CCCCC3)nc(N3CCCCC3)n2)c1`, the LC retention time was found to be 11.5 min. With `c1ccc2[nH]ncc2c1` the figure was 9.07 min; with `COC(=O)CN1CCCC1=O`, 6.91 min; with `CC(C)(C)c1ccc(C(=O)NN=Cc2cccnc2)cc1`, 11.2 min. Take `COc1ccc(C=Cc2nc(=O)c3ccccc3o2)cc1`: the LC retention time is 13.8 min. Consider `CNc1ccccc1`, for which the LC retention time is 7.27 min.

For the compound `c1ccc(C(NCc2cccs2)c2ccccc2)cc1`, the LC retention time came out at 11.8 min. Under `Nc1cccc(C2OCCCO2)c1` stands 7.87 min; under `Cc1[nH]c2ccccc2c1CCN1C(=O)C2CCCCC2C1=O` (stereo unspecified), 14.3 min. Consider `c1ccc(-c2cnc(-c3cccc4ccccc34)o2)cc1`, for which the LC retention time was found to be 19.4 min. Consider `Cc1[nH]c(-c2ccccc2)c(-c2ccccc2)c1C(=O)OCc1ccccc1`, for which the LC retention time is 18.2 min. With `S=C1NC2(CCCCC2)NN1c1ccccc1` the figure was 13.2 min; with `S=c1[nH]c(-c2ccccc2)c(-c2ccccc2)n1-c1ccccc1`, 14.4 min; with `Cc1cccc2c(=O)cc(-c3ccccc3)oc12`, 15.4 min. As to `CNC1CCCCC1`, the LC retention time amounted to 7.45 min. In the case of `CCc1nc2ccccc2[nH]1`, the LC retention time came out at 7.88 min. Regarding `COc1ccc2ccccc2c1C=NNC(=O)C(c1ccccc1)c1ccccc1`, the LC retention time is 17.5 min.

As to `O=C(NN=Cc1ccc(O)c(O)c1)c1ccc(NC(=O)c2ccccc2)cc1`, the LC retention time stood at 10.2 min.

`CN(C)C1C(=O)C(C(=O)NCN2CCCC2)C(=O)C2(O)C(=O)C3C(=O)c4c(O)cccc4C(C)(O)C3CC12` (stereo unspecified): the LC retention time came to 8.91 min.

As to `O=C1C(=Cc2ccoc2)CCCC1=Cc1ccoc1`, the LC retention time turned out to be 15.7 min. For `Cc1ccc(CCC(=O)O)cc1N`, the LC retention time was 7.58 min. For `CN(C)c1ccc(C=NNC(N)=S)cc1`, the LC retention time came out at 9.84 min. Under `Cc1nnc(Oc2ccccc2)c2ccccc12` stands 10.8 min. Consider `CCN(CC)c1ccc(C2Nc3ccccc3C(CC)(CC)O2)cc1` (stereo unspecified), for which the LC retention time is 13.8 min. For `CC(=O)NCCC1CCCCN1` (stereo unspecified), the LC retention time was determined as 6.55 min.

As to `S=C1N=C2CCCC2C2(CCCC2)N1` (stereo unspecified), the LC retention time came to 8.95 min. With `CN(C)c1ccc(C=NNC(=O)c2cccc(N)c2)cc1` the figure was 9.41 min; with `c1ccnnc1`, 4.58 min. Take `CC(=O)c1ccc2c(c1)N(CCCN(C)C)c1ccccc1S2`: the LC retention time turned out to be 11.1 min. As for `COC(=O)Cn1c(=O)n(C)c2c(=O)n(C)c(=O)n(C)c21`, the LC retention time turned out to be 8.93 min.

In the case of `CCCCCCCCCCCC[N+](C)(C)CCOc1ccccc1`, the LC retention time is 16.6 min. With `NCCCCCCCCCCCCN` the figure was 8.26 min; with `COc1ccc(C=NNC(N)=O)c(OC)c1`, 9.56 min.

Turning to `OCc1ccc2cc[nH]c2c1`, the LC retention time amounted to 8.46 min. With `CNCCc1ccccc1` the figure was 7.97 min; with `Cc1ccc2cccc(SC(c3ccccc3)c3ccccc3)c2n1`, 17.5 min; with `O=C(Nc1cccnc1)c1ccccn1`, 8.14 min. `Nc1cccc2cc3ccccc3nc12`: the LC retention time worked out at 8.34 min.

Consider `c1ccc(-c2cc3ccccc3[nH]2)cc1`, for which the LC retention time came to 15.8 min. Under `CC(=O)NC(NC(C)=O)C(O)C(O)C(O)C(O)CO` (stereo unspecified) stands 1.55 min; under `CC1(C)CC(NC(=O)C(=O)NCCc2ccccc2)CC(C)(C)N1`, 9.44 min; under `Cc1ccc(C(=O)NC(C)c2ccc(O)cc2)cc1` (stereo unspecified), 11.1 min. Under `Cc1cccc(-c2nnc(-c3ccccc3C)o2)c1` stands 17.1 min. On to `O=C(NN=Cc1ccco1)c1ccccc1`, for which the LC retention time is 9.65 min. Regarding `O=C(C=Cc1ccccc1)c1cc(O)ccc1O`, the LC retention time came to 12.5 min. Consider `NCCc1ccccn1`, for which the LC retention time is 6.83 min.

As for `CN(c1ccccc1)c1ccc(C=C2CCc3ccccc3C2=O)cc1`, the LC retention time was determined as 20.3 min. Under `c1ccc2c(-n3ccnc3)nccc2c1` stands 8.37 min; under `Nc1nc(N)nc(Cc2ccccc2)n1`, 7.96 min.

Turning to `O=C(NNC(=O)C1CCCCC1C(=O)O)C(c1ccccc1)c1ccccc1` (stereo unspecified), the LC retention time amounted to 11.8 min.

For `C#CCNC`, the LC retention time was 3.51 min. Take `O=C1NC(=O)C(c2ccccc2)(c2ccc(O)cc2)N1` (stereo unspecified): the LC retention time amounted to 9.15 min. Take `CCCCN(C)CCCC`: the LC retention time came out at 8.6 min. Turning to `Cc1ccccc1CN1CCN(Cc2c[nH]c3ccccc23)CC1`, the LC retention time worked out at 10.8 min. With `COCc1cc(=O)n2[nH]c(NC(C)=O)nc2n1` the figure was 6.11 min; with `c1coc(C2=NCCN2)c1`, 6.73 min; with `COC(=O)CCC(=O)Nc1ccc(C)cc1C`, 11.7 min.

Take `Cc1cccc(N)c1`: the LC retention time stood at 8.01 min. Take `CCN(CC)C(=O)c1cc(C)nc2c1c(=O)n(CC(=O)Nc1ccccc1)c(=O)n2C`: the LC retention time is 12 min. Under `COc1ccc(N)cc1` stands 7.59 min. As to `CC(=O)Nc1ccc(Cc2ccncc2)cc1`, the LC retention time is 7.75 min. With `CC1CC(O)(CC(O)(c2ccccc2)c2ccccc2)C(C)CN1C` (stereo unspecified) the figure was 10.2 min; with `Cc1cc(C)c(N)c(C(=O)O)c1`, 10.4 min.

With `Cc1ccc(N)cc1N`, the LC retention time stood at 6.85 min. `C[N+]1(C)CCCCC1`: the LC retention time was determined as 5.95 min.

Turning to `Cn1c(C(=O)N2CCN(C(c3ccccc3)c3ccccc3)CC2)cc(=O)n(C)c1=O`, the LC retention time turned out to be 11.7 min. Under `CC(=O)Nc1nc(=S)n(-c2ccccc2)[nH]1` stands 9.02 min; under `COCCCN`, 5.72 min. Consider `O=C(NC(c1ccccc1)c1ccccc1)c1cccnc1`, for which the LC retention time amounted to 12.1 min. Consider `CN(C)CCCN1CCC(O)C2CCCCC21` (stereo unspecified), for which the LC retention time stood at 7.19 min. Take `CN(C)CCNC1=CC(=O)CC(c2ccccc2)C1` (stereo unspecified): the LC retention time is 8.55 min. As to `CN(C)c1ccncc1`, the LC retention time was found to be 7.29 min. Under `Cc1cc(C)nc(SCc2nc3ccccc3nc2C)n1` stands 13.2 min. With `CC(=O)c1[nH]c2c(c1C)C(=O)CCC2` the figure was 8.48 min; with `Cc1ccc(-c2nc(-c3c[nH]c4ccccc34)[nH]c2-c2ccc(C)cc2)cc1`, 13.7 min; with `CCOC(=O)c1[nH]c(C)cc1C`, 12.5 min.

In the case of `CCCCn1c2ccccc2n2cc(C(C)(C)C)nc12`, the LC retention time was 12.2 min. With `CCCCCCCCCC(N)=O` the figure was 13.8 min. Under `Cc1nn[nH]n1` stands 2.16 min; under `COC(=O)CN`, 3.64 min. With `Nc1cccc(C2=NCCN2)c1` the figure was 6.85 min; with `CC[N+](CC)(CC)CCOc1cccc(OCC[N+](CC)(CC)CC)c1OCC[N+](CC)(CC)CC`, 8.44 min. Consider `Nc1ccccc1C(=O)NN=C1CCCC1`, for which the LC retention time stood at 10.1 min. Take `CC(=NNC(=O)c1cc2ccccc2cc1O)c1ccc(-c2ccccc2)cc1`: the LC retention time amounted to 16.3 min.

As for `Cc1ccc(-n2ccnc2)cc1`, the LC retention time amounted to 8.52 min.
